From paper PMC9468336, “The choanoflagellate pore-forming lectin SaroL-1 punches holes in cancer cells by targeting the tumor-related glycosphingolipid Gb3” (Communications Biology, 2022)

Tests used:
SaroL-1 = molecular target: T1, SaroL-1 (Salpingoeca rosetta, UniProt F2UID9); assay: Isothermal titration calorimetry (MicroCal iTC200) at 25 °C in 20 mM Tris/HCl pH 7.5, 100 mM NaCl, ligand titrated into SaroL-1, one-site model with stoichiometry N fixed to 3.; type: binding
T1 construct: gene PTSG_08235; monomeric in solution
Experimental: Isothermal Titration Calorimetry (ITC)
ITC experiments were performed with MicroCaliTC200 (Malvern Panalytical). Experiments were carried out at 25 °C ± 0.1 °C. SaroL-1 and ligands samples were prepared in Buffer A. The ITC cell contained SaroL-1 in a concentration range from 0.05 mM to 0.16 mM. The syringe contained the ligand solutions in a concentration from 10 to 50 mM. 2 μL of ligands solutions were injected into the sample cell at intervals of 120 s while stirring at 750 rpm. Integrated heat effects were analysed by nonlinear regression using one site binding model (MicroCal PEAQ-ITC Analysis software). The experimental data were fitted to a theoretical curve, which gave the dissociation constant (Kd) and the enthalpy of binding (∆H).

[1] = Confocal imaging of SaroL-1 binding to DOPC GUVs without glycolipids; details: 200 nM SaroL-1, DOPC GUVs without glycolipids (negative control)
Source text: GUVs were composed of 1,2-dioleoyl-sn-glycero-3-phosphocholine (DOPC), cholesterol (both AvantiPolar Lipids, United States), Atto 647 N 1,2-dioleoyl-sn-glycero-3-phosphoethanolamine (DOPE; Sigma-Aldrich), and one of the following glycolipids at a molar ratio of 64.7:30:0.3:5. The glycolipids are globotriaosylceramide (Gb3, Matreya), FSL-Gb3 (Function-Spacer-Lipid with globotriaosyl saccharide), and corresponding FSL-isoGb3 (Function-Spacer-Lipid with iso-globotriaosyl saccharide) synthetized as previously described[84],[85], FSL-A(tri) (Function-Spacer-Lipid with blood group A trisaccharide; Sigma-Aldrich), FSL-B(tri) (Function-Spacer-Lipid with blood group B trisaccharide; Sigma-Aldrich) or lactosylceramide (LC, Sigma-Aldrich).
GUVs were prepared by the electroformation method as earlier described. Briefly, lipids dissolved in chloroform of a total concentration of 0.5 mg/mL were spread on indium tin oxid-covered (ITO) glass slides and dried in a vacuum for at least 1 h or overnight. […]
Samples of GUVs and SaroL-1 were imaged using a confocal fluorescence microscope (Nikon Eclipse Ti-E inverted microscope equipped with Nikon A1R confocal laser scanning system, 60x oil immersion objective, NA = 1.49 and four laser lines: 405 nm, 488 nm, 561 nm, and 640 nm). […]

Molecule | Kd (SaroL-1) [µM] | binding to GUVs [1]
O=[N+]([O-])c1ccc(O[C@H]2O[C@H](CO)[C@H](O)[C@H](O)[C@H]2O)cc1 [PNPG, p-nitrophenyl-α-D-galactopyranoside] | 1010 | 
SaroL-1: Recombinant pore-forming lectin of Salpingoeca rosetta (UniProt F2UID9, 329 amino acids) with β-trefoil and aerolysin-like domains (protein, left off: His6, N-terminal, state not stated, Recombinant pore-forming lectin of Salpingoeca rosetta (UniProt F2UID9, 329 amino acids) with β-trefoil and aerolysin-like domains) MSSTFEPATDSPLPVPGVQYFLQHVQSGKYVHPHGGSDMPGNDTALVLHHGFDEKRDALRWVFVNDAENKHQLKHYSSGKFVHPKGGKVGKEATLVVHSSPGRPETMIEMVQEDGRTYLRHTDSDYYVHPHGGSPNPGDNTRLVYYSGYRPSLAFLAIPAETLFVDRIEIHQAQALESINTITSLSDEHRNDTDQPVQTSISVALEESLQDSAQLSFERCFGLKVGSEFEVGLPLVGKTKVSVQFSGSWKSSTIKGEVRTSAVKVQINEHVTIPPGKCVQIRIDTRRCTKTAPATMYLRTASGIEVQRETTVTSTYHYDQEVHVVPVTN |  | No binding
